Patent publication US12691107B2, “Methods for the treatment and prevention of lung infections caused by gram-positive bacteria, fungus, or virus by administration of tafenoquine” (priority 2020, dated 2026)

Experiments:
[1] = in vitro; settings: African green monkey
[2] = system: SARS-CoV-2; assay: microbe, parasite or virus in culture; type: cell-based; settings: Severe acute respiratory syndrome coronavirus 2, Vero C1008, 96 h
[3] = system: SARS-CoV-2; settings: cited from earlier work
[4] = system: SARS-CoV-2; assay: microbe, parasite or virus in culture; type: cell-based
[5] = in vivo; cited from earlier work
[6] = system: replicating Mycobacterium tuberculosis; settings: cited from earlier work
[7] = system: Para-Influenza-3 virus, Reovirus, Sindbis virus, Cocsackie B4 virus, Punto Toro virus and Yellow Fever Virus; settings: cited from earlier work
[8] = system: Babesia; settings: mice; cited from earlier work

`CCC(CC)COC(=O)[C@H](C)N[P@](=O)(OC[C@H]1O[C@@](C#N)(c2ccc3c(N)ncnn23)[C@H](O)[C@@H]1O)Oc1ccccc1` [Remdesivir] showed a CC50 [1] of over 100 µM and an EC50 [2] of 0.7 µM.
In the case of `CCN(CCO)CCCC(C)Nc1ccnc2cc(Cl)ccc12` (stereo not shown) [Hydroxychloroquine], the “fold less potent in CALU-3 than in VERO cells” value [3] is listed as 10 fold, the inhibition at 33 µM ([2]; 33 microM, 4-day assay, read-out: inhibition at the highest non-toxic concentration) is listed as 43% and the EC50 ([4]; Severe acute respiratory syndrome coronavirus 2, Vero C1008, Vero E6, moi 0.05, 48 hours, TCID50) is listed as 10.4 µM. It also gave a selectivity index ([4]; calculated relative to the CC50 for the 4-day test) of 5.3.
In the case of `COc1cc(NC(C)CCCN)c2ncccc2c1` (stereo not shown) [Primaquine], the half-life [5] is given as “approximately 6 hours”, the MIC [6] is given as 256 microgram/ml and the EC50 [7] is given as over 50 µM. The “dose clearing Babesia parasitemia” value [8] was 100 mg/kg.
